Results on four compounds are retold here after US20240300932A1, “N-PHENYLIMINE DERIVATIVE AND PREPARATION METHOD AND USE THEREOF” (Guizhou University, priority 2023, published 2024).

What all share (assay): Post-emergence herbicidal activity test (stem and leaf spray, pot culture)
Holding throughout (type): in vivo
Settings in all cases: 3 weeks after spraying

Experiment [1] concerns Abutilon theophrasti. The method, boiled down: (§1)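 Activity is given as a 0–5 grade of fresh weight growth control, scored three weeks after a single stem-and-leaf spray. Weeds in farmland loam were treated at the 2- to 3-leaf stage at 10, 5 and 2.5 g/mu, with methyl oleate added as synergist.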
Experiment [2] relates to Amaranthus retroflexus. The method, boiled down:
as §1

Experiment [3] deals with Echinochloa crusgalli. The method, boiled down: as §1
For experiment [4], the system named is Portulaca oleracea. The method in brief: as §1
Experiment [5] has as its system Setaria viridis. The method, boiled down:
as §1

Experiment [6] relates to Trifoliumre pensL. The method, boiled down:
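Rates of 10, 5 and 2.5 g/mu were applied in a single spray-tower treatment to 2–3-leaf plants, thinned to 10 per pot. Formulation: acetone solution, Tween 80, 1.5 L/ha methyl oleate synergist. Weed response assessed after 3 further greenhouse weeks; mean of three experiments.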

Consider `O=C1C2=C(CCCC2)C(=O)N1c1cc(OCc2nc(-c3ccc(Cl)nc3Cl)no2)c(Cl)cc1F` [Compound A16], for which the “Post-emergence herbicidal activity, A. theophrasti (grade)” value in experiment [1] (dosage 2.5 g/mu), in experiment [1] (dosage 5 g/mu) and in experiment [1] (dosage 10 g/mu) was 5 (Grade 5: the growth control rate is greater than or equal to 85%) in each case. The “Post-emergence herbicidal activity, A. retroflexus (grade)” value in experiment [2] (dosage 2.5 g/mu), in experiment [2] (dosage 5 g/mu) and in experiment [2] (dosage 10 g/mu) was 5 (Grade 5: the growth control rate is greater than or equal to 85%) in each case. In addition, the “Post-emergence herbicidal activity, E. crusgalli (grade)” value was 1 (Grade 1: the growth control rate is greater than or equal to 5% and less than 20%) in experiment [3] (dosage 2.5 g/mu); 2 (Grade 2: the growth control rate is greater than or equal to 20% and less than 40%) in experiment [3] (dosage 5 g/mu); 3 (Grade 3: the growth control rate is greater than or equal to 40% and less than 60%) in experiment [3] (dosage 10 g/mu). Besides, the “Post-emergence herbicidal activity, P. oleracea (grade)” value in experiment [4] (dosage 2.5 g/mu) is 4 (Grade 4: the growth control rate is greater than or equal to 60% and less than 85%); in experiment [4] (dosage 5 g/mu), 5 (Grade 5: the growth control rate is greater than or equal to 85%); in experiment [4] (dosage 10 g/mu), 5 (Grade 5: the growth control rate is greater than or equal to 85%). The “Post-emergence herbicidal activity, S. viridis (grade)” value in experiment [5] (dosage 2.5 g/mu) was 2 (Grade 2: the growth control rate is greater than or equal to 20% and less than 40%); in experiment [5] (dosage 5 g/mu) it was 3 (Grade 3: the growth control rate is greater than or equal to 40% and less than 60%); in experiment [5] (dosage 10 g/mu), 4 (Grade 4: the growth control rate is greater than or equal to 60% and less than 85%). Moreover, the “Post-emergence herbicidal activity, Trifoliumre pensL. (grade)” value in experiment [6] (dosage 2.5 g/mu) is 4 (Grade 4: the growth control rate is greater than or equal to 60% and less than 85%); in experiment [6] (dosage 5 g/mu), 5 (Grade 5: the growth control rate is greater than or equal to 85%); in experiment [6] (dosage 10 g/mu), 5 (Grade 5: the growth control rate is greater than or equal to 85%).
Consider `O=C1C2=C(CCCC2)C(=O)N1c1cc(OCc2nc(-c3cccc(C(F)(F)F)c3)no2)c(Cl)cc1F` [Compound A17], for which the “Post-emergence herbicidal activity, A. theophrasti (grade)” value in experiment [1] (dosage 2.5 g/mu), in experiment [1] (dosage 5 g/mu) and in experiment [1] (dosage 10 g/mu) was 5 (Grade 5: the growth control rate is greater than or equal to 85%) each time. Moreover, the “Post-emergence herbicidal activity, A. retroflexus (grade)” value in experiment [2] (dosage 2.5 g/mu), in experiment [2] (dosage 5 g/mu) and in experiment [2] (dosage 10 g/mu) was 5 (Grade 5: the growth control rate is greater than or equal to 85%) throughout. Also, the “Post-emergence herbicidal activity, E. crusgalli (grade)” value is 1 (Grade 1: the growth control rate is greater than or equal to 5% and less than 20%) in experiment [3] (dosage 2.5 g/mu); 2 (Grade 2: the growth control rate is greater than or equal to 20% and less than 40%) in experiment [3] (dosage 5 g/mu); 3 (Grade 3: the growth control rate is greater than or equal to 40% and less than 60%) in experiment [3] (dosage 10 g/mu). Besides, the “Post-emergence herbicidal activity, P. oleracea (grade)” value in experiment [4] (dosage 2.5 g/mu) was 4 (Grade 4: the growth control rate is greater than or equal to 60% and less than 85%); in experiment [4] (dosage 5 g/mu), 5 (Grade 5: the growth control rate is greater than or equal to 85%); in experiment [4] (dosage 10 g/mu) it was 5 (Grade 5: the growth control rate is greater than or equal to 85%). Further, the “Post-emergence herbicidal activity, S. viridis (grade)” value in experiment [5] (dosage 2.5 g/mu) was 2 (Grade 2: the growth control rate is greater than or equal to 20% and less than 40%); in experiment [5] (dosage 5 g/mu) it was 3 (Grade 3: the growth control rate is greater than or equal to 40% and less than 60%); in experiment [5] (dosage 10 g/mu), 4 (Grade 4: the growth control rate is greater than or equal to 60% and less than 85%). The “Post-emergence herbicidal activity, Trifoliumre pensL. (grade)” value in experiment [6] (dosage 2.5 g/mu) is 4 (Grade 4: the growth control rate is greater than or equal to 60% and less than 85%); in experiment [6] (dosage 5 g/mu) it was 5 (Grade 5: the growth control rate is greater than or equal to 85%); in experiment [6] (dosage 10 g/mu), 5 (Grade 5: the growth control rate is greater than or equal to 85%).
Take `O=C1C2=C(CCCC2)C(=O)N1c1cc(OCc2nc(-c3ccccc3C(F)(F)F)no2)c(Cl)cc1F` [Compound A18]: the “Post-emergence herbicidal activity, A. theophrasti (grade)” value in experiment [1] (dosage 2.5 g/mu), in experiment [1] (dosage 5 g/mu) and in experiment [1] (dosage 10 g/mu) was 5 (Grade 5: the growth control rate is greater than or equal to 85%) in each case. The “Post-emergence herbicidal activity, A. retroflexus (grade)” value in experiment [2] (dosage 2.5 g/mu), in experiment [2] (dosage 5 g/mu) and in experiment [2] (dosage 10 g/mu) was 5 (Grade 5: the growth control rate is greater than or equal to 85%) throughout. Besides, the “Post-emergence herbicidal activity, E. crusgalli (grade)” value in experiment [3] (dosage 2.5 g/mu) was 1 (Grade 1: the growth control rate is greater than or equal to 5% and less than 20%); in experiment [3] (dosage 5 g/mu) it was 2 (Grade 2: the growth control rate is greater than or equal to 20% and less than 40%); in experiment [3] (dosage 10 g/mu), 3 (Grade 3: the growth control rate is greater than or equal to 40% and less than 60%). In addition, the “Post-emergence herbicidal activity, P. oleracea (grade)” value was 4 (Grade 4: the growth control rate is greater than or equal to 60% and less than 85%) in experiment [4] (dosage 2.5 g/mu); 5 (Grade 5: the growth control rate is greater than or equal to 85%) in experiment [4] (dosage 5 g/mu); 5 (Grade 5: the growth control rate is greater than or equal to 85%) in experiment [4] (dosage 10 g/mu). Further, the “Post-emergence herbicidal activity, S. viridis (grade)” value in experiment [5] (dosage 2.5 g/mu) is 2 (Grade 2: the growth control rate is greater than or equal to 20% and less than 40%); in experiment [5] (dosage 5 g/mu) it was 3 (Grade 3: the growth control rate is greater than or equal to 40% and less than 60%); in experiment [5] (dosage 10 g/mu), 4 (Grade 4: the growth control rate is greater than or equal to 60% and less than 85%). Also, the “Post-emergence herbicidal activity, Trifoliumre pensL. (grade)” value in experiment [6] (dosage 2.5 g/mu) is 4 (Grade 4: the growth control rate is greater than or equal to 60% and less than 85%); in experiment [6] (dosage 5 g/mu) it was 5 (Grade 5: the growth control rate is greater than or equal to 85%); in experiment [6] (dosage 10 g/mu), 5 (Grade 5: the growth control rate is greater than or equal to 85%).
Consider `O=C1C2=C(CCCC2)C(=O)N1c1cc(OCc2nc(-c3cccs3)no2)c(Cl)cc1F` [Compound A19], for which the “Post-emergence herbicidal activity, A. theophrasti (grade)” value in experiment [1] (dosage 2.5 g/mu), in experiment [1] (dosage 5 g/mu) and in experiment [1] (dosage 10 g/mu) was 5 (Grade 5: the growth control rate is greater than or equal to 85%) throughout. The “Post-emergence herbicidal activity, A. retroflexus (grade)” value in experiment [2] (dosage 2.5 g/mu), in experiment [2] (dosage 5 g/mu) and in experiment [2] (dosage 10 g/mu) was 5 (Grade 5: the growth control rate is greater than or equal to 85%) in each case. In addition, the “Post-emergence herbicidal activity, E. crusgalli (grade)” value in experiment [3] (dosage 2.5 g/mu) is 1 (Grade 1: the growth control rate is greater than or equal to 5% and less than 20%); in experiment [3] (dosage 5 g/mu) it was 2 (Grade 2: the growth control rate is greater than or equal to 20% and less than 40%); in experiment [3] (dosage 10 g/mu), 3 (Grade 3: the growth control rate is greater than or equal to 40% and less than 60%). Besides, the “Post-emergence herbicidal activity, P. oleracea (grade)” value in experiment [4] (dosage 2.5 g/mu) is 4 (Grade 4: the growth control rate is greater than or equal to 60% and less than 85%); in experiment [4] (dosage 5 g/mu), 5 (Grade 5: the growth control rate is greater than or equal to 85%); in experiment [4] (dosage 10 g/mu), 5 (Grade 5: the growth control rate is greater than or equal to 85%). In addition, the “Post-emergence herbicidal activity, S. viridis (grade)” value was 2 (Grade 2: the growth control rate is greater than or equal to 20% and less than 40%) in experiment [5] (dosage 2.5 g/mu); 3 (Grade 3: the growth control rate is greater than or equal to 40% and less than 60%) in experiment [5] (dosage 5 g/mu); 4 (Grade 4: the growth control rate is greater than or equal to 60% and less than 85%) in experiment [5] (dosage 10 g/mu). For the same compound, the “Post-emergence herbicidal activity, Trifoliumre pensL. (grade)” value in experiment [6] (dosage 2.5 g/mu) was 4 (Grade 4: the growth control rate is greater than or equal to 60% and less than 85%); in experiment [6] (dosage 5 g/mu) it was 5 (Grade 5: the growth control rate is greater than or equal to 85%); in experiment [6] (dosage 10 g/mu), 5 (Grade 5: the growth control rate is greater than or equal to 85%).
